Test results published in publication PMC12860872, “Preclinical evaluation of DOTAGA.Glu.(FAPI)2 and DO3A.Glu.(FAPI)2 as theranostics with human dosimetry extrapolation to lutetium-177 and terbium-161 analogs” (European Journal of Nuclear Medicine and Molecular Imaging, 2025).

Key:
[1] = system: FAP+ CAFs; assay: Externalization from CAFs; assay type: cell-based, human; conditions: after 24 h at 37 °C
Procedure: For receptor saturation studies, FAP^+ CAFs were incubated with 0.1 to 10 nM of the radioligands. For internalization studies, approximately 2.5 pmol of the radioligands were added to CAFs followed by incubation for 15, 30, 60, 90, 120, 180 and 240 min for the ^68Ga-labeled or 30, 60, 120, 240 and 360 min for the ^177Lu-labeled radioligands at 37 °C, 5% CO2. For the externalization studies, approximately 2.5 pmol of the ^177Lu-labeled radioligands were added to CAFs followed by incubation for 2 h at 37 °C, 5% CO2. The amount of externalized activity was measured at 0, 10, 20, 30, 60, 120, 240, and 1440 min (Supplemental Data).
After the completion of the 2 hours of incubation, the medium was removed and CAF cells were washed with 1 mL of cold PBS (x2). The cells were then exposed to an acid wash with glycine buffer, as described above, to dissociate membrane-bound radioligand, and the fractions were collected. Fresh medium (1 mL/well) was added to the cells and were incubated at 37 °C. At different time points (10, 20, 30, 60, 120, 240 and 1440 minutes) the external medium was removed (followed by two washing steps with cold PBS). […] The radioactivity of the culture medium, the membrane-bound, the internalized and the externalized fractions were measured in a gamma-counter. The externalized fraction of radioactivity was expressed as the percentage of the total internalized amount.

[2] = system: PC3-mice; assay: Dosimetry in mice (nTACs, effective half-lives, TIAC/g); assay type: in vivo, mouse; conditions: for Effective half life: Tumor: nTACs
Procedure: (n = 3). The %I.A./g of tissue was calculated for liver, lungs, stomach, spleen, pancreas, kidneys, intestines, bone, muscle, salivary glands, heart wall, blood, tumor. To estimate the absolute activity in each source organ, the individual %I.A./g values were multiplied by the corresponding organ mass derived from the standard 25 g MOBY mouse phantom, yielding in the normalized source organ activities (nA) per time point and animal.
Following Cicone et al., the nA values for source organs were corrected to account for the fraction of administered activity sequestered by the tumor, as described in more detail in the dosimetry section of the supplemental data. According to the MIRD formalism, time-integrated activity coefficients (TIACs) were derived by integrating the normalized time-activity curves (nTACs), which were fitted using the bi-exponential functions. TIACs were calculated by fitting the nTACs with the bi-exponential functions and performing time integration in MATLAB. Additionally, mass-normalized TIACs (TIAC/g) were derived using organ masses from the standard 25 g MOBY mouse phantom (Supplemental data).
Biodistribution kinetics for [177Lu]Lu-DOTAGA.Glu.(FAPI)2 and [177Lu]Lu-DO3A.Glu.(FAPI)2 were assessed by ex vivo quantification of the accumulated radioactivity in source organs using a calibrated gamma counter at 4, 24, 48, 72, and 96 hours p.i. (n=3). The percentage of injected activity per gram of tissue (%I.A./g) was calculated, as described above, for a comprehensive panel of tissues, including liver, lungs, stomach, spleen, pancreas, kidneys, intestines, bone, muscle, salivary glands, heart wall, blood, and tumor. To estimate the absolute activity in each source organ, the individual %I.A./g values was multiplied by the corresponding organ mass derived from the standard 25 g MOBY mouse phantom, which provides high-resolution anatomical reference data for the murine models (28). […] The actual activity measurements were referred to the gamma counter measurement time (i.e. no physical decay correction to the administration time was applied). For each organ and time point, the mean nA was subsequently calculated across the three animals.
As outlined by Cicone et al., (1) the nA values for source organs were corrected to account for the fraction of administered activity sequestered by the tumor by redistributing the tumor nA (nAtumor) to organs according to the formula: […]
Where nAWB is the nA measured in the whole body. This adjustment was implemented to facilitate the extrapolation of absorbed dose data from mice to humans, considering that the tumor "sink effect" - prominent in murine models - is generally negligible in human subjects. In radiopharmaceutical dosimetry using tumor-bearing mice, the “tumor sink” effect refers to the phenomenon where large or highly avid tumors absorb a significant portion of the injected radiotracer, reducing its availability to normal organs. This can lead to artificially low uptake measurements in healthy tissues, which may not reflect what would occur in humans with smaller tumors or lower tumor burden. To correct for this, dosimetry calculations often include a "tumor sink correction" that adjusts normal organ uptake values to account for the radiotracer sequestered by the tumor, ensuring more accurate and clinically relevant dose estimates.
According to the MIRD formalism, for each source organ, time-integrated activity coefficients (TIACs) were derived by integrating the normalized time-activity curves (nTACs), which were fitted using the bi-exponential functions. The integration of the fitted nTACs was extended to infinity for organs in which the effective half-life of the slower bi-exponential component (tslow) was shorter than the physical half-life of lutetium-177 (tslow < tphys). […]

[3] = PC3-mice, nTACs corrected for tumor sink

TIAC/g Bones ([2]; Mouse) [h/g]	TIAC/g Heart contents ([2]; Mouse) [h/g]	TIAC/g Kidneys ([2]; Mouse) [h/g]	TIAC/g Liver ([2]; Mouse) [h/g]	TIAC/g Pancreas ([2]; Mouse) [h/g]	TIAC/g Rest of the body ([2]; Mouse) [h/g]	TIAC/g Salivary glands ([2]; Mouse) [h/g]	TIAC/g Tumor ([2]; Mouse) [h/g]	Effective half life: Tumor ([2]; PC3-mice) [h]	Effective half life: Bones [2, 3] [h]	Effective half life: Heart content [2, 3] [h]	Effective half life: Kidney [2, 3] [h]	Effective half life: Liver [2, 3] [h]	Effective half life: Lung [2, 3] [h]	Effective half life: Pancreas [2, 3] [h]	Effective half life: Salivary glands [2, 3] [h]	Effective half life: Small Intestine [2, 3] [h]	Liver TIAC/g, times higher than for [177Lu]Lu-DO3A.Glu.(FAPI)2 ([2]; Mouse) [times]	Structure (SMILES)	initially internalized activity released [1]
3.82 ± 0.12	0.12 ± 0.003	0.20 ± 0.01	3.47 ± 0.14	0.20 ± 0.01	10.77 ± 0.32	0.25 ± 0.02	1.61 ± 0.2	51 ± 12.6	23.3 ± 1.4	12.8 ± 0.4	22.3 ± 7.1	70.4 ± 2.9	18.3 ± 4.4	14.1 ± 3.2	11.8 ± 5.9	16.2 ± 4.5		N#C[C@@H]1CC(F)(F)CN1C(=O)CNC(=O)c1ccnc2ccc(OCCCCNC(=O)CC[C@H](NC(=O)CN3CCN(CC(=O)[O-])CCN(CC(=O)[O-])CCN(CC(=O)[O-])CC3)C(=O)NCCCCOc3ccc4nccc(C(=O)NCC(=O)N5CC(F)(F)C[C@H]5C#N)c4c3)cc12.[177Lu+3] [[^177Lu]Lu-DO3A.Glu.(FAPI)2]	~ 46%
6.65 ± 0.39	0.11 ± 0.005	0.39 ± 0.02	9.65 ± 0.82	0.29 ± 0.01	10.75 ± 0.68	0.36 ± 0.01	1.19 ± 0.16	39.1 ± 1.1	30.9 ± 0.5	12.5 ± 0.1	50.1 ± 3.1		19.9 ± 0.6	40 ± 14.2	52.1 ± 14.9	25.4 ± 0.9	2.7	N#C[C@@H]1CC(F)(F)CN1C(=O)CNC(=O)c1ccnc2ccc(OCCCCNC(=O)CC[C@H](NC(=O)CCC(C(=O)O)N3CCN(CC(=O)[O-])CCN(CC(=O)[O-])CCN(CC(=O)[O-])CC3)C(=O)NCCCCOc3ccc4nccc(C(=O)NCC(=O)N5CC(F)(F)C[C@H]5C#N)c4c3)cc12.[177Lu+3] (stereo partly drawn) [[^177Lu]Lu-DOTAGA.Glu.(FAPI)2]	~ 40%
